Data on four molecules can be found in US20170226541A1, “METHOD OF IMPROVING SOLVENT TOLERANCE IN MICROBES” (Nanyang Technological University, priority 2014, published 2017).

The nature of assay [1]: Single molecule tracking of DHPE-Atto647N in supported lipid bilayer. Also on record: species or system E. coli. Conditions: for effect on MSD / bilayer stiffness (comparison of OPV COEs): no butanol, OPV COE final concentration 1 μM (FIG. 4). The method, then:
SLB formation, MIM treatment: A 3 mg/ml chloroform solution of total E. coli lipid extract (Avanti Polar Lipids, Alabaster, Ala.) was mixed with DHPE-Atto647N (Atto-Tec, Slegen, Germany) to 0.001% mol in a round bottom flask produce large unilamellar vesicles (LUVs). Chloroform was evaporated using a rotary evaporator for 2 hours at 65° C. The lipid film was resuspended in 10 mM HEPES and 150 mM NaCl, pH 7.4, vortexed for 10 min and sonicated in a bath sonicator until a clear solution was obtained. One hundred μl of such a prepared LUVs solution were deposited in a custom made plastic holder, glued to a coverslip, and incubated for 60 min at 65° C. Prior to use, coverslips were cleaned by 30 min sonication in 2% Hellmanex (Hellma Analytics, Millheim, Germany), followed by thorough rinsing with deionized (DI) water. Un-fused vesicles were removed by 10× washing with 400 μl of 10 mM Hepes, 150 mM NaCl, 3 mM EDTA, pH 7.4 buffer. Calculated volumes of COE1-5C, DSSN+, DSBN+ and 4F-DSBN+ (0.1 mM) were added directly to the chamber to final concentrations of 1 μM, mixed and allowed to equilibrate for 5 min prior to measurement.
Data acquisition: For total internal reflection microscopy (TIRF) imaging, a modified Nikon Eclipse TE2000U TIRF setup was used, equipped with a 100× 1.49NA objective (Nikon, Japan). Laser light from a 638 nm LED laser was passed through a 660LP dichromic mirror (Chroma Technology Corp, Bellows Falls, Vt.) and used for sample illumination under the TIR angle. Emitted light was filtered using a 738/75 […] and collected on a back-illuminated EMCCD camera chip (Andor iXON897, 512x512px, Andor Technology, USA). For each condition, 4 to 6 datasets of 4000 frames at 97 fps were collected from different regions of the membrane. Immobile particles and contaminants were bleached prior to measurement.
Data analysis: A Mosaic Particle Tracker ImageJ plugin was used to localize the centroid of single molecule signals and link them to trajectories. TrackArt software was used to filter spurious trajectories and extract mean square displacements and diffusion coefficients. […] The slowly-diffusing population occurs most likely due to marker interaction with the surface.

Assay [2] has as its system E. coli K12. The assay can be described thus: Butanol challenge, microdilution growth test. Conditions: for protective effect on growth under butanol challenge: 0 to 3.5% (v/v) butanol, DSSN+ 5 μM. Type of assay: cell-based, Escherichia coli K12 (ATTC 10798). As for the experimental part: Butanol challenge was assessed by using a microdilution format modified standard toxicity test based on the method described by Wiegand et al (I. Wiegand, K. Hilpert, R. E. W. Hancock, Nat. Protocols 2008, 3, 163-175). Cultures of E. coli K12 (ATTC 10798) grown in LB broth were harvested at late log phase and diluted to 1×10^6 cfu ml. One hundred μl of the suspension were inoculated into 96 well plates with each well containing an equal volume of LB broth and spiked with the following concentrations of 1-butanol: […] in a 96 well plate achieving a final inoculum density of 5×10^5 and a final butanol concentration of 0, 0.85, 1.75, and 3.5% (v/v). Tests were run in triplicate with and without COE1-5C (10 μM) and DSSN+ (5 μM) using the appropriate sterility and growth controls. Specific growth rates were expressed as an average of all replicates.

In assay [3] the test system is E. coli K12 cells. The assay can be described thus: Modified microbial adhesion to hydrocarbon (MATH) test. The class given is cell-based, Escherichia coli K12. The method, then:
To test for cell surface modifications brought about by COE1-5C that might affect hydrophobicity, E. coli K12 cells treated with COE1-5C (10 μM) were tested for their affinity for either the butanol or aqueous phase against an untreated control. The tendency of E. coli to partition into the butanol phase or remain in the aqueous phase was assessed optically by measuring the reduction in turbidity (OD600) of tubes containing a saturated mixture of butanol (1.5 ml) and buffer (18.5 ml). The tests were carried out with appropriate blanks and both positive and negative controls. MATH tests were carried out in triplicate and expressed as the quotient of the difference between the OD600 at the start and […] and the OD600 at the […].

Assay [4] relates to E. coli K12. The assay can be described thus: Toxicity tests (minimum inhibitory concentration). Type of assay: cell-based, Escherichia coli K12. The text has this: Relative toxicities of DSSN+ and DSBN+ are positively correlated with the extent of mismatch between the length of the hydrophobic molecular backbone and bilayer thickness. Membrane insertion of the shorter, 3-ringed DSBN+ thinned the membrane more than the 4-ringed DSSN+, perturbing it to a greater extent, and was correspondingly more toxic. In this example, the objective is to mitigate the toxic effect of organic solvents on biological membranes. To avoid synergistic membrane disruption in systems containing both MIMs and solvents, MIMs that were the least likely to perturb membranes, that is, DSSN+×(which was previously shown to maintain the natural thickness of membranes) and COE1-5C, were selected. The insertion of COE1-5C, whose molecular length (≈5 nm) is greater than the thickness of the bilayer (≈4 nm), would be expected to initiate membrane perturbation because of hydrophobic mismatch. However, positive hydrophobic mismatch perturbs lipid bilayers less than instances of negative mismatch—where the length of the insertion molecules is shorter than the thickness of the bilayer. The experimental concentration of COE1-5C used in this study (10 μM) is much lower than its minimum inhibitory concentration (MIC). […] This is considerably greater than for DSSN+, DSBN+ and 4F-DSBN+, further supporting the hypothesis that membrane thinning is a potent toxicity determinant. […]

For assay [5], the system named is E. coli K12. Briefly: Membrane polarisation (DiSC3 fluorescence). The class given is cell-based, Escherichia coli K12. Particulars: 10 μM COE1-5C; 0, 1.75 or 3.5% (v/v) 1-butanol. The method, then: Cultures of E. coli K12 grown in LB broth were harvested at late log phase and diluted to 5×10^5 cfu ml. Cells were centrifuged at 5000×g for 5 min and washed in phosphate buffered saline (PBS). The process was repeated three times and the pellet finally resuspended in PBS. Two-hundred μl of the cell suspension were inoculated into 96 well plates, 2 μL of the depolarization detecting probe 3,3-diethylthiodicarbocyanine (DiSC3) iodide was added to the treatment wells and to half of these, 10 μM COE1-5C. The cells were allowed to incubate for around 30 min and the fluorescence intensity at 670 nm was measured after excitation at 620 nm until a stable base line was reached. Zero, 1.75, or 3.5% (v/v) 1-butanol was added to the test well and the increase in fluorescence intensity was taken at 1 min intervals (Ex=λ620, Em=Δ670) as a bottom reading with optimal gain to determine the degree of membrane polarization. Buffer, dye, and COE1-5C blanks were monitored and the data corrected accordingly.

“Also recorded” adds a separate entry of the source.

As for `C[N+](C)(C)CCCCCCN(CCCCCC[N+](C)(C)C)c1ccc(/C=C/c2c(F)c(F)c(/C=C/c3ccc(N(CCCCCC[N+](C)(C)C)CCCCCC[N+](C)(C)C)cc3)c(F)c2F)cc1.[I-].[I-].[I-].[I-]` [4F-DSBN+, reference compound], in assay [1], the “effect on MSD / bilayer stiffness (comparison of OPV COEs)” value (“effect on MSD / bilayer stiffness” below) is “stiffened the least amount”.
For the molecule `C[N+](C)(C)CCCCCCN(CCCCCC[N+](C)(C)C)c1ccc(C=Cc2ccc(C=Cc3ccc(C=Cc4ccc(C=Cc5ccc(N(CCCCCC[N+](C)(C)C)CCCCCC[N+](C)(C)C)cc5)cc4)cc3)cc2)cc1.[I-].[I-].[I-].[I-]` [COE1-5C], the “protective effect on growth under butanol challenge” value in assay [2] (COE1-5C 10 μM) is “increased the growth rate of E. coli K12 in all instances of butanol challenge; also recorded: mitigates the toxic effect of butanol”. The “growth rate of treated cells relative to untreated cells (fold)” value in assay [2] (3.5% v/v butanol) was “threefold increase”; in assay [2] (3.5% v/v butanol, listed as OPV COE), “three times”; in assay [2] (3.5% v/v butanol, listed as conjugated oligo-electrolyte) it was 3. The “growth rate relative to a control” value in assay [2] (3.5% v/v butanol) is “about 13%”. Also, in assay [2] (3.5% v/v butanol, COE1-5C 10 μM, listed as conjugated oligo-electrolyte), the specific growth rate worked out at 0.095 h⁻¹. For the same molecule, the “tendency of treated cells to partition into the butanol phase relative to untreated cells” value in assay [3] (10 μM COE1-5C) is “less than half that of untreated cells”. Besides, the MATH value in assay [3] (E. coli K12 treated with 10 μM COE1-5C, butanol/buffer partitioning, OD600) is given as 0.17 (±0.027). Moreover, the “reduction in MSD of membrane marker” value in assay [1] (0% (v/v) butanol) is on record as 62%; in assay [1] (0.85% (v/v) butanol) it was 38%; in assay [1] (1.75% (v/v) butanol), 22%; in assay [1] (3.5% v/v butanol) it was 15%. Besides, the “diffusion coefficients in model membranes versus control” value in assay [1] (10 μM COE1-5C, 0.85, 1.75, 3.50% v/v butanol (FIG. 2)) was “much lower than in control systems”. Further, in assay [1], the “effect on MSD / bilayer stiffness” value was “increased bilayer stiffness to the greatest degree”. The “minimum inhibitory concentration (MIC)” value in assay [4] is 128 µM. Also, the “membrane depolarization by butanol” value in assay [5] was “mitigated the depolarization efficiency of butanol”.
Take `C[N+](C)(C)CCCCCCN(CCCCCC[N+](C)(C)C)c1ccc(/C=C/c2ccc(/C=C/c3ccc(N(CCCCCC[N+](C)(C)C)CCCCCC[N+](C)(C)C)cc3)cc2)cc1.[I-].[I-].[I-].[I-]` [DSBN+, reference compound]: the “effect on MSD / bilayer stiffness” value in assay [1] is recorded as “to a lesser degree than the five-ringed structure”.
With `C[N+](C)(C)CCCCCCN(CCCCCC[N+](C)(C)C)c1ccc(/C=C/c2ccc(/C=C/c3ccc(/C=C/c4ccc(N(CCCCCC[N+](C)(C)C)CCCCCC[N+](C)(C)C)cc4)cc3)cc2)cc1.[I-].[I-].[I-].[I-]` [DSSN+, reference compound], the “protective effect on growth under butanol challenge” value in assay [2] (COE1-5C 10 μM) was “no protective effect; also recorded: no growth of E. coli K12 was observed”; in assay [2] (COE1-5C 10 μM, listed as DSSN^+) it was “do not”. Besides, the “effect on MSD / bilayer stiffness” value in assay [1] is “to a lesser degree than the five-ringed structure”.
